Results taken from article PMC10447463, “Data-mining unveils structure–property–activity correlation of viral infectivity enhancing self-assembling peptides” (Nature Communications, 2023).
Where two headings read alike, the source gives them in different places.

Columns and labels:
[1] = Conversion rate (CR) assay with fluorescamine; type: physicochemical; set-up: key to CR: % = 100−100×filtrate/original fluorescence intensity; details: conversion rate, fluorescamine assay; for CR / %: Fig. S7 panel B
How it was run: (§1)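 Lyophilized PNF (from 1 mg/mL) scanned 64× on diamond ATR, 2 cm^-1 resolution; β-sheet content per earlier report. CR: spin through 3 kDa MWCO, 16200 x g, 4 °C, 45 min; lyophilize filtrate + unfiltered; DMSO; fluorescamine 20 min RT; ex 365/em 470.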

[2] = type: physicochemical; set-up: key to Fibril / Fibril Formation / TEM 2cat / Fibril: 1 = fibrils present; 0 non-fibrillar structures; details: for Fibril / Fibril Formation: 1 mg/mL, uranyl acetate stain, qualitative
[3] = type: physicochemical; details: for ThT Cat. / ThT-Fluorescence (categorical): ThT-active if fluorescence at least twice the control
How it was run: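 Preformed peptide fibrils (1 mg/mL) mixed with 50 µM ThT in PBS, 15 min at RT, fluorescence ex 440/em 488 nm versus PBS blank, triplicates. Zeta potential: peptides at 1 mg/mL in PBS pH 7.4, aged 1 d at RT, diluted in 1 mM KCl, Smoluchowski from electrophoretic mobility.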

[4] = β-sheet content by ATR-FT-IR; type: physicochemical; details: Fig. S7 panel A; β-sheet content by ATR-FT-IR
How it was run: as §1

[5] = FigS12 panel A, fibril category by TEM
[6] = TEM, 1 = fibrils present, 0 = non-fibrillar
[7] = TEM, 1 = fibrils present, 0 = non-fibrillar structures
[8] = category: fibrils present or non-fibrillar

Substance | CR / % [1] | CR [1] | TEM 2cat ([2]; Fig S10 panel D) | Fibril ([2]; Fig S10 panel E) | TEM 2cat [2, 5] | Fibril ([2]; FigS12 panel B, TEM) | Fibril / Fibril Formation ([2]; TEM) | Fibril [2, 6] | Fibril [2, 7] | Tht category (> 2 to blank = +) ([3]; Fig S10 panel D) | ThT Cat. ([3]; Fig S10 panel E) | Tht category (> 2 to blank = +) ([3]; FigS12 panel A) | ThT Cat, ([3]; FigS12 panel B) | ThT Cat, ([3]; ThT category, 1 if Rel. ThT >2) | ThT Cat. ([3]; ThT category, 1 if Rel. ThT >2) | ThT Cat. / ThT-Fluorescence (categorical) [3] | b -sheet / % [4] | TEM 2cat [2, 8]
CEIEIQI | 59% | 59 | 1 | 1 | 1 | 1 | 1 | 1 | 1 | 1 (ThT. Cat is 1, if Rel. ThT >2) | 1 (ThT. Cat is 1, if Rel. ThT >2) | 1 (ThT. Cat is 1, if Rel. ThT >2) | 1 (ThT. Cat is 1, if Rel. ThT >2) | 1 (ThT. Cat is 1, if Rel. ThT >2) | 1 (ThT. Cat is 1, if Rel. ThT >2) | 1 (ThT. Cat is 1, if Rel. ThT >2) | 45% | 
CETMYDKILKNLSRSR | 98.9% | 98.89 | 0 | 0 | 0 | 0 | 0 | 0 | 0 | 0 (ThT-inactive (N-Fold <2)) | 0 (ThT-inactive (N-Fold <2)) | 0 (ThT-inactive (N-Fold <2)) | 0 (ThT-inactive (N-Fold <2)) | 0 (ThT-inactive (N-Fold <2)) | 0 (ThT-inactive (N-Fold <2)) | 0 (ThT-inactive (N-Fold <2)) | 62.1014% | 
CHLHLQL | 96.6% | 96.58 | 0 | 0 | 0 | 0 | 0 | 0 | 0 | 1 (ThT. Cat is 1, if Rel. ThT >2) | 1 (ThT. Cat is 1, if Rel. ThT >2) | 1 (ThT. Cat is 1, if Rel. ThT >2) | 1 (ThT. Cat is 1, if Rel. ThT >2) | 1 (ThT. Cat is 1, if Rel. ThT >2) | 1 (ThT. Cat is 1, if Rel. ThT >2) | 1 (ThT. Cat is 1, if Rel. ThT >2) | 49.52% | 
CKFC | 35.9% | 35.92 | 0 | 0 | 0 | 0 | 0 | 0 | 0 | 0 (ThT-inactive (N-Fold <2)) | 0 (ThT-inactive (N-Fold <2)) | 0 (ThT-inactive (N-Fold <2)) | 0 (ThT-inactive (N-Fold <2)) | 0 (ThT-inactive (N-Fold <2)) | 0 (ThT-inactive (N-Fold <2)) | 0 (ThT-inactive (N-Fold <2)) | 38.87% | 
CKFKFQF | 95.6% | 95.56 | 1 | 1 |  |  | 1 | 1 | 1 | 1 (ThT. Cat is 1, if Rel. ThT >2) | 1 (ThT. Cat is 1, if Rel. ThT >2) |  |  | 1 (ThT. Cat is 1, if Rel. ThT >2) | 1 (ThT. Cat is 1, if Rel. ThT >2) | 1 (ThT. Cat is 1, if Rel. ThT >2) | 47.43% | 1
CKFKFQFNM | 93.5% | 93.52 | 1 | 1 |  |  | 1 | 1 | 1 | 1 (ThT. Cat is 1, if Rel. ThT >2) | 1 (ThT. Cat is 1, if Rel. ThT >2) |  |  | 1 (ThT. Cat is 1, if Rel. ThT >2) | 1 (ThT. Cat is 1, if Rel. ThT >2) | 1 (ThT. Cat is 1, if Rel. ThT >2) | 41% | 1
QCKFKFQF |  |  | 1 |  |  |  | 1 | 1 | 1 | 1 (ThT. Cat is 1, if Rel. ThT >2) |  |  |  | 1 (ThT. Cat is 1, if Rel. ThT >2) | 1 (ThT. Cat is 1, if Rel. ThT >2) | 1 (ThT. Cat is 1, if Rel. ThT >2) | 40.03% | 1
QCKIKIQI |  |  | 1 |  |  |  | 1 | 1 | 1 | 1 (ThT. Cat is 1, if Rel. ThT >2) |  |  |  | 1 (ThT. Cat is 1, if Rel. ThT >2) | 1 (ThT. Cat is 1, if Rel. ThT >2) | 1 (ThT. Cat is 1, if Rel. ThT >2) | 35.27% | 1
QCKIKQII |  |  | 1 |  | 1 | 1 | 1 | 1 | 1 | 1 (ThT. Cat is 1, if Rel. ThT >2) |  | 1 (ThT. Cat is 1, if Rel. ThT >2) | 1 (ThT. Cat is 1, if Rel. ThT >2) | 1 (ThT. Cat is 1, if Rel. ThT >2) | 1 (ThT. Cat is 1, if Rel. ThT >2) | 1 (ThT. Cat is 1, if Rel. ThT >2) | 40.51% | 
QCKIKQIINM |  |  | 1 |  |  |  | 1 | 1 | 1 | 1 (ThT. Cat is 1, if Rel. ThT >2) |  |  |  | 1 (ThT. Cat is 1, if Rel. ThT >2) | 1 (ThT. Cat is 1, if Rel. ThT >2) | 1 (ThT. Cat is 1, if Rel. ThT >2) | 38.44% | 1
RPRGLLLGNLR |  |  | 0 |  | 0 | 0 | 0 | 0 | 0 | 0 (ThT-inactive (N-Fold <2)) |  | 0 (ThT-inactive (N-Fold <2)) | 0 (ThT-inactive (N-Fold <2)) | 0 (ThT-inactive (N-Fold <2)) | 0 (ThT-inactive (N-Fold <2)) | 0 (ThT-inactive (N-Fold <2)) | 13.82% | 
TKTLTKTL |  |  | 0 |  | 0 | 0 | 0 | 0 | 0 | 0 (ThT-inactive (N-Fold <2)) |  | 0 (ThT-inactive (N-Fold <2)) | 0 (ThT-inactive (N-Fold <2)) | 0 (ThT-inactive (N-Fold <2)) | 0 (ThT-inactive (N-Fold <2)) | 0 (ThT-inactive (N-Fold <2)) | 34.38% | 
